Legend:
HIV [1] = assay: microbe, parasite or virus in culture; format: cell-based; conditions: Human immunodeficiency virus 1, MT4, 96 h, read-out: EC50 (50% HIV inhibition concentration), MT-4 cells, HIV, cultured four days, MTT; compounds of formula (I) of (A)
Experimental: A serial dilution series of test samples was prepared in 96-well microplates (50 μL/well).
100 μL/well in each case were dispensed onto plates having test samples of 2.5×10^5/mL MT-4 cell suspension, and HIV virus solution was then dispensed thereto in the amount of 50 μL/well. Mixing was performed using a plate mixer and culturing was performed for four days in a CO2 incubator. MTT (3-(4,5-dimethylthiazol-2-yl)-2,5-diphenyltetrazolium bromide) liquid was dispensed into each well in the amount of 30 μL in each case. The reaction was conducted for 1 h in a CO2 incubator. 150 μL of supernatant were removed from each well, taking care not to aspirate any cells. 150 μL of cell solution were added, and thorough mixing was performed with a plate mixer until all the cells had been dissolved. The optical absorbance of the mixed plates was measured at two wavelengths: 560 nm/690 nm, with a microplate reader.

[2] = test system: HIV mutant strain 1 (E138K/G140S/Q148H/N155H); assay: Test Example 2: resistance evaluation test (HeLa-CD4 reporter), mutant strain 1; format: cell-based; conditions: FC=EC50 of mutant strain/EC50 of wild strain; HeLa-CD4 cells
Experimental: (§1) A serial dilution series of test samples in 96-well microplates was prepared (50 […]).
(§2) 2.5×10^4/mL of HeLa-CD4 cell suspension was dispensed into each of the microplates containing test sample, in the amount of 100 μL/well, and HIV virus liquid (wild strain and mutant strain) was then dispensed in an amount of 50 μL/well. Mixing was performed using a plate mixer and culturing was performed for three days in a CO2 incubator. After removing the cultured supernatant of each well by suction, 100 μL of the cell solution buffer in the reporter measurement kit was dispensed thereto, and freezing was conducted in a refrigerator (−80° C.). The plates frozen in the refrigerator were defrosted at room temperature, then mixed using a plate mixer and centrifuged for 5 min at 1,200 rpm. The supernatant of each well was divided to 96-well microplates (BLACK) in the amount of 20 μL in each case. The chemiluminescence reagent in the reporter assay kit was dispensed in the amount of 100 μL in each case, and, after reacting for about 1 h at room temperature, the amount of luminescence was measured using a MicroBeta TRILUX.
(§3) The degree of resistance (fold change (FC)) of each mutant strain was also calculated using the following formula. FC=EC50 of mutant strain/EC50 of wild strain (Results)
(§4) The results of the example compounds relating to formula (I) of (A) are shown below. The […] in respect of mutant strain 1 (E138K/G140S/Q148H/N155H) and the FC in respect of mutant strain 2 (E92Q/E138T/G140S/Q148H) are shown in the Table.

[3] = test system: HIV mutant strain 2 (E92Q/E138T/G140S/Q148H); assay: Test Example 2: resistance evaluation test (HeLa-CD4 reporter), mutant strain 2; format: cell-based; conditions: FC=EC50 of mutant strain/EC50 of wild strain; HeLa-CD4 cells
Experimental: as §1, §2, §3, §4

HIV [4] = assay: Test Example 3: test for confirmation of combined use effect; format: cell-based; set-up: key to D value (dosewise additivity value): <-0.1 synergy, -0.1 to 0.1 additive, >0.1 antagonism
Source text: The two compounds in respect of which the effect of combined use was desired to be examined were mixed in various ratios, and the anti-HIV activity (50% HIV inhibiting concentration) for each combination was found by the method of test example 1. […] A brief description of the method of calculating the D value is given below.
The D value that is found by evaluating the anti-HIV activity of respective combinations of M concentrations of compound X1 and N concentrations of compound X2 is calculated by the following mathematical expression 1.
The effect of combined use was evaluated in terms of the D value in accordance with the following criteria • −0.5 to −0.2: strong synergetic effect • −0.2 to −0.1: weak synergetic effect • […]: additive synergetic effect • 0.1 to 0.2: weak antagonism • 0.2 to 0.5: strong antagonism

[5] = Test Example 8: metabolic stability test; format: in vitro ADME, human
Experimental: The extent of metabolization of the compound according to the present invention in the liver was evaluated by reacting commercially available pooled human liver microsomes with the compound according to the present invention for a fixed time and calculating the remaining percentage by comparing the reaction sample with an unreacted sample.
The reaction (oxidative reaction) was conducted for 0 min or 30 min at 37° C. in the presence of 1 mmol/L of NADPH, in a 0.2 mL buffer solution containing 0.5 mg of human liver microsome protein/mL (50 mmol/L Tris-HCl pH 7.4, 150 mmol/L potassium chloride, 10 mmol/L magnesium chloride). After the reaction, 50 μL of reaction liquid were added to 100 μL of methanol/acetonitrile=1/1 (v/v) solution, mixed, and centrifuged for 15 minutes at 3000 rpm. The compound according to the present invention in the centrifuged supernatant was quantified using LC/MS/MS or solid phase extraction (SPE)/MS; the residual amount of the compound according to the present invention after the reaction was calculated, taking the amount of the compound at the 0 min reaction point as 100%.

[6] = combination with compound (B) Compound C (CAI)
[7] = combination with compound (B) GS-6207 (CAI)
[8] = combination with compound (B) GSK2838232 (maturation inhibitor)
[9] = combination with compound (B) Ramipzin (3TC) (polymerase inhibitor)
[10] = pooled human liver microsomes, 30 min at 37° C., NADPH, compound concentration 0.5 μmol/L

Compound	EC50 (HIV [1]) [nM]	FC in respect of mutant strain 1 (E138K/G140S/Q148H/N155H) [2]	FC in respect of mutant strain 2 (E92Q/E138T/G140S/Q148H) [3]	Remaining percentage [5, 10] [%]	further results
CCN1C(=O)c2c(O)c(=O)c(C(=O)NCc3cccc(Cl)c3F)cn2N2[C@H]3COCC3C[C@@H]12 (some centres unmarked) [II-052]	0.27	22	16		D value (dosewise additivity value) (HIV [4]; [6]): 0.038; effect of combined use (HIV [4]; [6]): Additive (−0.1 to −0.1: additive synergetic effect); D value (dosewise additivity value) (HIV [4]; combination with compound (B) Darunavin (PI)): −0.076; effect of combined use (HIV [4]; combination with compound (B) Darunavir (PI)): Additive (−0.1 to −0.1: additive synergetic effect); D value (dosewise additivity value) (HIV [4]; [7]): −0.003; effect of combined use (HIV [4]; [7]): Additive (−0.1 to −0.1: additive synergetic effect); D value (dosewise additivity value) (HIV [4]; [8]): −0.009; effect of combined use (HIV [4]; [8]): Additive (−0.1 to −0.1: additive synergetic effect); effect of combined use (HIV [4]; combination with compound (B) Lilpiperine (polymerase inhibitor)): Additive (−0.1 to −0.1: additive synergetic effect); D value (dosewise additivity value) (HIV [4]; [9]): −0.156; effect of combined use (HIV [4]; [9]): Weak synergy (−0.2 to −0.1: weak synergetic effect); D value (dosewise additivity value) (HIV [4]; combination with compound (B) Rilpivirine (polymerase inhibitor)): −0.020; Remaining percentage ([5]; human, microsomes, 0.5 h, 0.5 μmol/L, pH 7.4): 61.6%
C[C@@H]1CC[C@H]2N(C)C(=O)c3c(O)c(=O)c(-c4nnc(Cc5ccc(F)cc5F)s4)cn3N12 [II-113]	0.66	7.2	6.5	85.3	
CN1C(=O)c2c(O)c(=O)c(-c3nnc(Cc4cccc(Cl)c4F)s3)cn2N2CCOC[C@@H]12 [II-122]	0.24	30	25	102	
C[C@@H]1CCC[C@H]2N(C)C(=O)c3c(O)c(=O)c(-c4nnc(Cc5ccc(F)cc5F)s4)cn3N12 [II-124]	3.5	6.8	11	103	
CCN1C(=O)c2c(O)c(=O)c(-c3nnc(Cc4c(F)cc(F)cc4F)s3)cn2N2[C@H](C)CCC[C@@H]12 [II-125]	1.4	11	26	88.5	
CCN1C(=O)c2c(O)c(=O)c(-c3nnc(Cc4c(F)cc(F)cc4F)s3)cn2N2C[C@@H]3CC[C@@H](O3)[C@@H]12 [II-126]	0.6	17	20	97.2	
CCN1C(=O)c2c(O)c(=O)c(-c3nnc(Cc4ccc(F)cc4F)s3)cn2N2C[C@@H]3CC[C@@H](O3)[C@@H]12 [II-127]	0.74	7.9	19	100	
CCN1C(=O)c2c(O)c(=O)c(-c3nnc(Cc4ccc(F)cc4)s3)cn2N2C[C@@H]3CC[C@@H](O3)[C@@H]12 [II-128]	0.66	20	29	103	
CCN1C(=O)c2c(O)c(=O)c(-c3nnc(Cc4ccc(F)cc4F)s3)cn2N2C[C@@H]3CC[C@@H](C3)[C@@H]12 [II-130]	0.66	2.5	3.9	92.9	
CCN1C(=O)c2c(O)c(=O)c(-c3nnc(Cc4c(F)cc(F)cc4F)s3)cn2N2C[C@@H]3CC[C@@H](C3)[C@@H]12 [II-131]	0.66	2.3	3.5	83.4	
CN1C(=O)c2c(O)c(=O)c(-c3nnc(Cc4ccc(F)cc4F)s3)cn2N2C[C@@H]3CC[C@@H](C3)[C@@H]12 [II-138]	0.14	15	11	93.9	
CCN1C(=O)c2c(O)c(=O)c(-c3nnc(Cc4c(F)cc(F)cc4F)s3)cn2N2CC[C@@H](C)C[C@@H]12 [II-143]	1.7	3	3.6	82.5	
C[C@@H]1CCN2[C@@H](C1)N(C)C(=O)c1c(O)c(=O)c(-c3nnc(Cc4c(F)cc(F)cc4F)s3)cn12 [II-144]	0.69	6.1	6.1	94.2	
CCN1C(=O)c2c(O)c(=O)c(-c3nnc(Cc4c(F)cc(F)cc4F)s3)cn2N2CC[C@H](C)C[C@@H]12 [II-147]	1.8	5.1	7.3	91.5	
CCN1C(=O)c2c(O)c(=O)c(-c3nnc(Cc4cc(F)c(F)cc4F)s3)cn2N2C[C@@H]3CC[C@@H](C3)[C@@H]12 [II-148]	5.2	8.3	6.6	71.7	
CN1C(=O)c2c(O)c(=O)c(-c3nnc(Cc4c(F)cc(F)cc4F)s3)cn2N2C[C@@H]3CC[C@@H](C3)[C@@H]12 [II-149]	0.6	14	12	96.5	
COC[C@@H]1CC[C@H]2N(C)C(=O)c3c(O)c(=O)c(-c4nnc(Cc5c(F)cc(F)cc5F)s4)cn3N12 [II-151]	0.37	27	17	94.6	
CCN1C(=O)c2c(O)c(=O)c(-c3nnc(Cc4ccc(F)cc4F)s3)cn2N2C[C@@H](C)CC[C@@H]12 [II-155]	0.3	5.2	5.1	93	
CCN1C(=O)c2c(O)c(=O)c(-c3nnc(Cc4c(F)cc(F)cc4F)s3)cn2N2C[C@@H](C)CC[C@@H]12 [II-156]	1.2	3.5	4.6	91.3	
COC[C@@H]1CC[C@H]2N(C)C(=O)c3c(O)c(=O)c(C(=O)NCc4c(F)cc(F)cc4F)cn3N12 [II-157]	0.7	53	24	90	
